# Settings: buffer; pH 7.4; 200.0 µM
row,SMILES,solubility kinetic [µg/mL]
1,CCCn1c2ccccc2c2cnn(CC(=O)O)c(=O)c21,> 42.8
2,CNC(=O)NC(O)C(Cl)(Cl)Cl (stereo not given),33.1
3,CCCCNC(=O)COC(=O)c1ccc(N(C)C)cc1,> 41.8
4,CCCOc1ccc(/C=C2\SC(N)=NC2=O)cc1OC,2.5
5,O=C(NCc1ccccc1F)C1CCCN1C(=O)Nc1cccc(F)c1 (stereo not given),> 53.9
6,O=C(COc1ccc(Cl)cc1)Nc1ccc2c(c1)OCO2,< 0.7
7,CC(=O)c1ccc(NC(=O)CCCC(=O)c2ccccc2)cc1,3.6
8,Cc1cc(C)n2nc(SCC(=O)NC3CCCCC3)nc2n1,> 47.9
9,O=C(N/N=C/c1ccccn1)c1cccnc1,> 33.9
10,NS(=O)(=O)c1ccc(Sc2nc3ccccc3s2)c([N+](=O)[O-])c1,1.7
11,Cc1cccc(C)c1NC(=O)CNC(=O)c1ccccc1,24.9
12,CCOC(=O)C1CCN(C(=S)Nc2ccc(C)cc2)CC1,19.9
13,C/C(=N\N1CCN(C)CC1)c1ccc(OC(F)F)cc1,> 42.5
14,O=C(Cc1csc(-c2ccccc2)n1)NCc1cccs1,15.6
15,CC(=O)COc1nc2c(c(-c3ccco3)c1C#N)CCc1ccccc1-2,1.7
16,COc1ccc(Cl)cc1C(=O)NN=C1CCCC1,> 40
17,Clc1ccccc1OCCCCN1CCNCC1.O=C(O)C(=O)O,> 53.8
18,Cc1cc(C)c2cc(C(=O)N(C)C3CCN(C)CC3)[nH]c2c1,21
19,COc1ccc(N2CC(C(=O)N3CCCC(C)C3)CC2=O)cc1 (stereo not given),> 47.5
20,O=[N+]([O-])c1ccc(Nc2ccccn2)c([N+](=O)[O-])c1,2.7

row,SMILES,solubility kinetic [µg/mL]
1,CCN1CCCC1CNC(=O)C(=O)Nc1ccccc1 (stereo not given),> 41.3
2,Clc1ccc(OCCn2cnc(Cl)c2Cl)cc1,21.1
3,Cc1cc(C)c2c(n1)sc1c(N3CCCCC3)ncnc12,< 0.2
4,Cc1ccc(CNC(=O)CSc2nc(C)cs2)cc1,> 43.9
5,Cc1ccc(C)c(NC(=O)CCN2C(=O)c3ccccc3C2=O)c1,1.2
6,CC(C)N(Cc1ccccc1)C(=S)Nc1cccnc1,> 42.8
7,CC(Oc1cccnc1[N+](=O)[O-])C(=O)Nc1ccc(Cl)cn1 (stereo not given),17
8,COc1cccc(CN2CCNCC2)c1OC,20.3
9,Cc1ccc(NC(=O)CN(C)C(=O)/C=C/c2cccc(F)c2)cc1,2.2
10,N#Cc1c(-c2ccc(Cl)cc2)ccnc1N1CCOCC1,3
11,Cc1c(Cc2ccc3c(c2)OCO3)sc(NC(=O)C2CC2)c1C(N)=O,1.8
12,Cc1cccc(Cn2nc(C(C)(C)C)cc2C(=O)N2CCOCC2)c1,> 51.2
13,O=C(NCc1csc(-c2cccs2)n1)Nc1ccc(C(F)(F)F)cc1,< 0.3
14,Cc1ccc(NC(=O)CN2CCN(Cc3ccccc3)CC2)cc1F,42.8
15,O=C(Nc1ccc(F)cc1)c1ccc2ncsc2c1,10.3
16,O=C(Nc1ccc2ccccc2c1)c1cc(F)c(F)cc1Cl,< 0.7
17,O=C(NC1CCN(C(=S)NCCc2ccccc2)CC1)C1CC1,10.7
18,CCOC(=O)C(=O)Nc1ccc(OCc2ccccc2)cc1,30.2
19,Cn1c(=O)c2[nH]c(C3CCCC3)nc2n(C)c1=O,> 37.2
20,Cl.O=[N+]([O-])c1ccccc1OCCCN1CCc2ccccc2C1,> 52.3

row,SMILES,solubility kinetic [µg/mL]
1,O=C(NCc1cccc(C(F)(F)F)c1)c1ccc2c(c1)OCCO2,6.1
2,COc1ccc([N+](=O)[O-])cc1C(=O)C(=O)c1ccccc1,< 0.6
3,COc1ccc(CCNC(=O)C(=O)NCc2cccs2)cc1OC,21.4
4,CCOc1ccc(CCNC(=O)Nc2ccccc2)cc1OCC,5.9
5,Br.Fc1cccc(CNCC2CCCO2)c1 (stereo not given),42.2
6,O=C(O)CCCC(=O)NCc1c(Cl)cccc1Sc1ccc(Cl)cc1,> 59.7
7,COc1cc2c(cc1OC)C(c1ccc(Br)cc1)NC(=O)C2 (stereo not given),45.2
8,COc1ccc(OC)c(N/C(C)=C/C(=O)c2ccncc2)c1,36.9
9,Cc1cc(C)c(C)c(OCCCCN2CCCCC2)c1,29.4
10,COc1cccc(N2CCN(CC(=O)NC(C)c3ccccc3)CC2)c1 (stereo not given),45
11,COCc1cc(C)nc(Oc2ccccc2)c1C#N,> 38.1
12,COc1ccc(OC)c(CNc2ccc3c(c2)nc(C)n3C)c1,37.1
13,NC(=O)c1ccc(/C=N/O)[n+](Cc2ccccc2)c1.[Br-],33.9
14,CCCCOC(=O)Nc1ccc(S(=O)(=O)Nc2nccs2)cc1,38.1
15,CC(C)C(=O)Nc1nc2cc3c(cc2s1)OCCO3,37.4
16,Cl.N=C(N)SCP(=O)(c1ccccc1)c1ccccc1,> 49
17,O=C(NCC(=O)N1CCN(c2ncccn2)CC1)c1ccccc1F,> 51.5
18,CNC(=O)c1c(NC(=O)c2ccco2)sc2c1CCC2,3.3
19,O=S(=O)(c1ccc(NCc2ccc(F)cc2)nc1)N1CCCC1,3
20,Cc1cc(C)cc(NC(=O)CCn2ccnc2)c1,> 36.5
